Data on eight compounds can be found in US5869448A, “Cyclic CS-1 peptidomimetics, compositions and methods of using same” (Cytel Corporation, priority 1995, dated 1999).

“And” between values parts separate entries of the source, which are not always exact repeats. Equal values may be shown once. Positions of bridges follow the written chain, without caps; N, C: chain ends. Non-standard residues stand in square brackets, D forms with d. Residues, ends and D or L forms follow the SMILES beside them. *: point of attachment. Pen = CC(C)(S)[C@H](N)C(=O)O; PhAc = O=C(Cc1ccccc1)*

The conditions of series [1]: in vivo; cited from earlier work.
A short description of series [2]: Retention of potency in PBS containing 10 percent mouse or human serum. Format: in vitro ADME. The following applies: PBS at 7.2-7.4 with 10 percent mouse or human serum.
The target of a further series is T1, VLA-4/CS-1 (Homo sapiens, UniProt P05556+P13612).
T1 construct: inflammatory cells that contain the VLA-4 receptor [Jurkat cells; host or cells: Jurkat (human T lymphoblastic line)
Description: In vitro inhibition of binding of 51Cr-labeled Jurkat cells to solid phase-bound CS-1 peptide. Format: cell-based. As to the method: Binding inhibition is measured here as a concentration of peptide that inhibits one-half the binding between a standard number of Jurkat cells and a standard amount of CS-1 peptide bound to the surface of a microtiter plate well. Those concentrations are conveniently expressed as IC50 values, smaller numbers indicating a lower concentration required to inhibit 50 percent binding and therefore greater potency. Further specifics of this assay are provided hereinafter.
Jurkat cells (ATCC TIB 152), a human T lymphoblastic line, labeled with ^51 chromium were used to assay in vitro binding inhibition provided by various peptides discussed herein.
The plates were prepared as follows: The 25-mer CS-1 peptide (SEQ ID NO:5) dissolved at 0.5-1 μg/ml in a buffer of 0.1M NaHCO3 at pH 9.5 that also contained 10 μg/ml of bovine serum albumin (BSA) or a conjugate of the CS-1 peptide linked to ovalbumin (CS-1-OVA) dissolved at 1-2.5 μg/ml in the same buffer was used as the substrate. Each well of the microtiter plates was coated with 50 μl of substrate or buffer alone for controls. The wells were permitted to dry out completely and were then rinsed twice with PBS at pH 7.4. Non-specific binding sites of each well were then blocked using 200 μl per well of RPMI/1 percent BSA for two hours at room temperature. Both solid phase-affixed substrates provided similar results.
Jurkat cells (3-5×10^6 cells) were placed into a 15 ml FALCON™ round-bottom tube with a cap. The tube was centrifuged, and the extra medium was then removed.
Two hundred microliters of a ^51 Cr labeling solution were added to the centrifuged cells and maintained in contact with the cells for 90-120 minutes in a warm room. This procedure typically provides about 50,000-100,000 cpm/well with about 80-100 percent cell viability. Longer contact times provide a greater amount of labeling but lower cell viability.
The labeled cells were washed with (i) complete medium, (ii) 1 mM EDTA/PBS and then (iii) RPM1/1 percent BSA free of serum components. The cells were centrifuged after each washing. The cells were finally resuspended in serum-free RPMI/1 percent BSA at a concentration of 1×10^6 viable cells/ml, which provides a concentration that is diluted by one-half in the assay.
Cyclic inhibitor peptides were prepared as stock solutions at 20 mg/ml in DMSO in 1.5 ml cryogenic screwcap vials, and were stored at -70° C. Using FLOW™ round-bottom or V-bottom microtiter plates, the inhibitor peptides were prepared at twice the assay concentration in RPMI/1 percent BSA at 60 μl/well.
Four initial dilutions were typically used.
The ^51 Cr-labeled cells (1×10^6 cells at 60 μl/well) were then admixed with the diluted cyclic peptide solutions. The admixtures were maintained at room temperature (about 22° C.) for 30 minutes.
One hundred microliters of each inhibitor peptide/cell admixture were transferred to the substrate-coated wells. This was done in triplicate for each dilution. The resulting plates were incubated for 30 minutes at 37° C. and then washed gently three times with RPMI/1 percent BSA at 200 μl/well. Binding was observed microscopically, particularly after the second wash.
The bound cells were then lysed by the addition of a 0.5 percent solution of sodium dodecylsulfate in water at 100 μl/well. The resulting solutions were then processed for counting and calculation of IC50 values following usual procedures. Appropriate positive and negative controls were used with each plate so that the results of separate assays could be normalized and compared.
The potency data of Table 1 and Table 2 are so normalized. The absolute IC50 value for the peptide of SEQ ID NO:7 is 0.3 μM.

The target in a further series is T2, VLA-4/sVCAM-1 (Homo sapiens, UniProt P05556+P13612).
T2 construct: host or cells: Jurkat cells (VLA-4). sVCAM-1 was made in house in transfected human 293 cells (ATCC CRL 1573) and purified from supernatant
The series can be described thus: In vitro inhibition of binding of Jurkat cells to solid phase-bound sVCAM-1. Format: cell-based. As to the method:
Assays conducted using sVCAM-1 as solid phase-bound antigen were carried out substantially identically to those using CS-1. The sVCAM-1 polypeptide used had the same amino acid residue sequence as the materials described in Lobb et al., Biochem. Biophys. Res. Commun., 178:1498-1504 (1991) and Cybulsky et al., Proc. Natl. Acad. Sci., USA, 88:7859-7863 (1991). Human embryonal kidney line 293 (ATCC CRL 1573) cells were co-transfected with a plasmid (pCDNAI;invitrogen) containing the sVCAM-1 DNA sequence and plasmid pSV2-neo [Southern et al., J. Mol. Appl. Gen., 1:327341 (1992)]. Cells were selected in DMEM, 10 percent fetal bovine serum and 600 μg/ml Geneticin. sVCAM-1 was purified from supernatants using a column containing monoclonal antibody P3H12 (anti-human VCAM-1) coupled to Sepharose 4B. The sVCAM-1 was eluted using 0.1M glycine at pH 2.5 following 50 column washes with PBS, pH 7.2. The eluate was immediately neutralized and dialyzed against PBS for use.

The subject of series [3] is Porcine peripheral blood lymphocytes. The series can be described thus: In vitro porcine allograft model, transendothelial lymphocyte migration. Format: cell-based. The note with it: 10 μg/ml in the medium, IL-1β-stimulated SMC. As to the method: A similar study is carried out in vitro using porcine coronary artery endothelial cells (EC; as are present in the IEL) and smooth muscle cells (SMC; as are present in the medial layer of the artery). The two cell types are cultured using a membrane transwell system, with the SMC on the bottom layer in M-199 medium (Gibco Labs.). The SMC are stimulated with 100 ng/ml of interleukin-1β (IL-1β) for 24 hours prior to the start of the assay. Porcine peripheral blood lymphocytes are separated by Ficoll-Hypaque, radiolabeled and incubated overnight (about 18 hours) on the EC.
Transendothelial lymphocyte migration in the IL-1β-stimulated SMC is observed as compared to unstimulated SMC (p<0.05).

The mark [4] stands for this setting: Table 2, normalized, relative to standard peptide of SEQ ID NO:6.
Setting [5] is: Table 1, normalized IC50, standard peptide of SEQ ID NO:6 = 1.

T1 sequence (P13612 34-1032): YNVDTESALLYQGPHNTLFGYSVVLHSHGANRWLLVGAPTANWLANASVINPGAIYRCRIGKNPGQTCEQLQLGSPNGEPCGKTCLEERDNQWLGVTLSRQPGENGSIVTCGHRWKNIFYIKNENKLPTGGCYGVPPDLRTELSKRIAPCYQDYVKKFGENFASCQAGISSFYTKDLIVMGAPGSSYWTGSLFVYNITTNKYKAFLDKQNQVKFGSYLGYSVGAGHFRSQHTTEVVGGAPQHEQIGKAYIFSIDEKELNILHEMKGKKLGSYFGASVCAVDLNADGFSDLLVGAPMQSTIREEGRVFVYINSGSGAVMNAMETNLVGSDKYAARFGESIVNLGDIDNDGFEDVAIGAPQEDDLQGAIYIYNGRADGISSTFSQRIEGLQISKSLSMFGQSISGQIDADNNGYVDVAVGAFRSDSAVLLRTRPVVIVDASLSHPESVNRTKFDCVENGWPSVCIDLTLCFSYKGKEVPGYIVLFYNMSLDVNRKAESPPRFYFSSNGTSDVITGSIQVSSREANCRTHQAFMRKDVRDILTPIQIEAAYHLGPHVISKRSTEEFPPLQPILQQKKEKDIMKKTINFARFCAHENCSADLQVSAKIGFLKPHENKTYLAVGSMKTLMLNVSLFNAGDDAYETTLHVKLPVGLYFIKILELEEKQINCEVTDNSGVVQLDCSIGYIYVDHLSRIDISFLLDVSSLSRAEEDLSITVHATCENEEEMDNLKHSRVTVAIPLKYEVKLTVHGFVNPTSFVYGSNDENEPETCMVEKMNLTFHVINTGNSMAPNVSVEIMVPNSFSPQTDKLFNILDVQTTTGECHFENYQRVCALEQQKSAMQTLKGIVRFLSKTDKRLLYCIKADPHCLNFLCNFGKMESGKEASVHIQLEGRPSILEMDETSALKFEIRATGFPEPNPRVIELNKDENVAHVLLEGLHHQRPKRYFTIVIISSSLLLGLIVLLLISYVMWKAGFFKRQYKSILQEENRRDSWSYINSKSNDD
T1 sequence (P05556 21-798): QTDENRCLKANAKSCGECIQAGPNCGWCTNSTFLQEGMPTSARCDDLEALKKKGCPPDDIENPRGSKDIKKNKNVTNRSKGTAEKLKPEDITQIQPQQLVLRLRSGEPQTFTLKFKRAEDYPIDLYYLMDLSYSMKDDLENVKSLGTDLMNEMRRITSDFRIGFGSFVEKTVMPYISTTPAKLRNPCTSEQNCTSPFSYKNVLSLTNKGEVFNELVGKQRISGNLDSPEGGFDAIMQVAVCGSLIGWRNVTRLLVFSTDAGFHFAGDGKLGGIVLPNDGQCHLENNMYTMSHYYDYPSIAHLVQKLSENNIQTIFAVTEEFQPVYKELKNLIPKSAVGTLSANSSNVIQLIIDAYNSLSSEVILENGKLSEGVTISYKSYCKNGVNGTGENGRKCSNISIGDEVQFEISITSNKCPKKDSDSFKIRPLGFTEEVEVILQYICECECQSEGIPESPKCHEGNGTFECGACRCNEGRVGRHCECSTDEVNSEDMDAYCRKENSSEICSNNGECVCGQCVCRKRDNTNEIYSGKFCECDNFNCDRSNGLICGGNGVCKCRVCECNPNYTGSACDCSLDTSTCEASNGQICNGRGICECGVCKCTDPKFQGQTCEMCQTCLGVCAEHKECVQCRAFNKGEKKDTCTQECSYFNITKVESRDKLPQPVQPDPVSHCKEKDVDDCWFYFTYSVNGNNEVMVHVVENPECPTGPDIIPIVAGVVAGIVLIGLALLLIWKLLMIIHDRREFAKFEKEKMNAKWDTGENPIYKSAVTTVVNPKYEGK
T2 sequence (P13612 34-1032): as the sequence (P13612 34-1032) above
T2 sequence (P05556 21-798): as the sequence (P05556 21-798) above

With “CS-1 peptide: 25-residue (25-mer) CS-1 portion of fibronectin that binds to the VLA-4 receptor (DELPQLVTLPHPNLHGPEILDVPST) [reference compound]”, the “clearance from blood circulation” value in series [1] was “rapidly cleared”. The “time in which potency is lost” value in series [2] was “less than one”.

As for `NC(=O)[C@@H]1CSSC[C@H](NC(=O)Cc2ccccc2)C(=O)N[C@@H](CC(=O)O)C(=O)N[C@@H](Cc2ccccc2)C(=O)N1` [SEQ ID NO:7, N-phenylacetyl-Cys-Asp-Phe-Cys-NH2] (PhAc-CDFC-NH2; disulfide 1-4), the “potency relative to the best linear peptide (XLDFZ), Jurkat cell binding to CS-1” value at VLA-4/CS-1 is on record as “about two-thirds”. Moreover, the IC50 (usually the point on the concentration scale where inhibition reaches its midpoint) on VLA-4/CS-1 (Jurkat cells, solid phase-bound CS-1, read-out: absolute IC50 value) amounted to 0.3 µM. At VLA-4/CS-1 (setting [4]), the “Relative Potency” value is 954. Also, the “CS-1 binding inhibition potencies relative to each other” value on VLA-4/CS-1 (XLDFp = 1) is recorded as around 1.8. Further, the “inhibition potency relative to the Standard 10-mer of SEQ ID NO:6” value on VLA-4/CS-1 (times more potent than standard 10-mer) was 500-600 and ~563. Besides, the “potency relative to the best linear peptide (XLDFZ), Jurkat cell binding to sVCAM-1” value on VLA-4/sVCAM-1 is recorded as “about 3 times”. The “loss of potency after 24 hours” value in series [2] (24 hours) is reported as “no loss of potency”.

In the case of `CC(C)C[C@@H]1NC(=O)[C@H](Cc2ccccc2)NC(=O)[C@H](CCC(=O)O)NC(=O)[C@@H]2CCCN2C(=O)[C@@H](N)CSSC[C@@H](C(N)=O)NC(=O)[C@@H]2CCCN2C(=O)[C@H](Cc2ccccc2)NC(=O)[C@H](CC(=O)O)NC1=O` [compound 16] (H-CPEFLDFPC-NH2; disulfide 1-9), the “Relative Potency” value on VLA-4/CS-1 (setting [5]) is 31.

With `CC1(C)SSC[C@@H](C(N)=O)NC(=O)[C@H](Cc2ccccc2)NC(=O)[C@H](CC(=O)O)NC(=O)[C@H]1NC(=O)Cc1ccccc1` [compound 14] (PhAc-[Pen]DFC-NH2; disulfide 1-4), the “Relative Potency” value on VLA-4/CS-1 (setting [5]) stood at 94.

As to `CC(C)C[C@@H]1NC(=O)[C@H](Cc2ccccc2)NC(=O)[C@@H](N)CSSC[C@@H](C(N)=O)NC(=O)[C@H](CO)NC(=O)[C@@H]2CCCN2C(=O)[C@H](Cc2ccccc2)NC(=O)[C@H](CC(=O)O)NC1=O` [SEQ ID NO:13, CFLDFPSC--NH2] (H-CFLDFPSC-NH2; disulfide 1-8), the transendothelial lymphocyte migration result in series [3] is recorded as “reduces lymphocyte migration”.

For the compound “.phi.AcJDFc-NH2 (PhAc-[Pen]DF[dC]-NH2; disulfide 1-4)”, the results for the “Relative Potency” value with VLA-4/CS-1 (setting [5]) and with VLA-4/CS-1 (setting [4]) were 4 and 4.07, respectively.

On to `CC(C)C[C@@H]1NC(=O)[C@H](Cc2ccccc2)NC(=O)[C@H](CCC(=O)O)NC(=O)[C@@H](N)CSSC[C@@H](C(N)=O)NC(=O)[C@@H]2CCCN2C(=O)[C@H](Cc2ccccc2)NC(=O)[C@H](CC(=O)O)NC1=O` [compound 20] (H-CEFLDFPC-NH2; disulfide 1-8), for which, at VLA-4/CS-1 (setting [5]), the “Relative Potency” value was 19.

For `CC(C)C[C@@H]1NC(=O)[C@H](Cc2ccccc2)NC(=O)[C@@H](N)CSSC[C@@H](C(N)=O)NC(=O)[C@H]([C@@H](C)O)NC(=O)[C@H](CO)NC(=O)[C@@H]2CCCN2C(=O)[C@H](Cc2ccccc2)NC(=O)[C@H](CC(=O)O)NC1=O` [SEQ ID NO:15, CFLDFPSTC--NH2] (H-CFLDFPSTC-NH2; disulfide 1-9), at VLA-4/CS-1 (setting [4]), the “Relative Potency” value turned out to be 81.4.
